Source: PubChem BioAssay AID330 (DTP/NCI, 2004)
Where “and” joins values, the source holds several entries; their conditions need not be identical. Equal entries are not always repeated. Inconclusive results and toxic doses are left out.

System: P388 leukemia ip, CD2F1 mice, survival T/C
Assay: NCI In Vivo Anticancer Drug Screen. Data for tumor model P388 Leukemia (intraperitoneal) in CD2F1 (CDF1) mice
Settings: endpoint: median survival time, higher = longer survival
Summary of the method: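 Mice carrying the transplanted tumor received test compound or vehicle. Survival was recorded in each group, and the value is the treated-group measurement divided by that of the vehicle-treated control group.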

[1] = dose: 100.0 mg/kg/injection, schedule: Q01DX001 (ip), vehicle: Klucel (hydroxypropylcellulose) (HPC)
[2] = dose: 200.0 mg/kg/injection, schedule: Q01DX001 (ip), vehicle: Klucel (hydroxypropylcellulose) (HPC)
[3] = dose: 400.0 mg/kg/injection, schedule: Q01DX001 (ip), vehicle: Klucel (hydroxypropylcellulose) (HPC)
[4] = dose: 50.0 mg/kg/injection, schedule: Q01DX009 (ip), vehicle: saline with Tween-80
[5] = dose: 50.0 mg/kg/injection, schedule: Q01DX005 (ip), vehicle: saline with Tween-80
[6] = dose: 100.0 mg/kg/injection, schedule: Q01DX005 (ip), vehicle: saline with Tween-80
[7] = dose: 200.0 mg/kg/injection, schedule: Q01DX005 (ip), vehicle: saline with Tween-80
[8] = dose: 50.0 mg/kg/injection, schedule: Q01DX009 (ip), vehicle: Klucel (hydroxypropylcellulose) (HPC)
[9] = dose: 100.0 mg/kg/injection, schedule: Q01DX009 (ip), vehicle: Klucel (hydroxypropylcellulose) (HPC)
[10] = dose: 200.0 mg/kg/injection, schedule: Q01DX009 (ip), vehicle: Klucel (hydroxypropylcellulose) (HPC)
[11] = dose: 50.0 mg/kg/injection, schedule: Q01DX009 (ip), vehicle: saline
[12] = dose: 100.0 mg/kg/injection, schedule: Q01DX009 (ip), vehicle: saline
[13] = dose: 200.0 mg/kg/injection, schedule: Q01DX009 (ip), vehicle: saline
[14] = dose: 60.0 mg/kg/injection, schedule: Q01DX005 (ip), vehicle: saline with Tween-80
[15] = dose: 120.0 mg/kg/injection, schedule: Q01DX005 (ip), vehicle: saline with Tween-80
[16] = dose: 240.0 mg/kg/injection, schedule: Q01DX005 (ip), vehicle: saline with Tween-80
[17] = dose: 25.0 mg/kg/injection, schedule: Q01DX009 (ip), vehicle: saline with Tween-80
[18] = dose: 100.0 mg/kg/injection, schedule: Q01DX009 (ip), vehicle: saline with Tween-80
[19] = dose: 200.0 mg/kg/injection, schedule: Q01DX009 (ip), vehicle: saline with Tween-80
[20] = dose: 120.0 mg/kg/injection, schedule: Q01DX005 (ip), vehicle: Klucel (hydroxypropylcellulose) (HPC)
[21] = dose: 240.0 mg/kg/injection, schedule: Q01DX005 (ip), vehicle: Klucel (hydroxypropylcellulose) (HPC)

With `Cc1ccccc1-n1c(-c2ccccc2)cs/c1=N\N=C1/CSC(=O)N1Cc1ccccc1` the T/C [1] was 107 % of control, the T/C [2] was 104 % of control and the T/C [3] was 89 % of control.
With `CCCCCCCCOP(=O)(N1CC1C)N1CC1C` (configuration not stated) the T/C (dose: 12.5 mg/kg/injection, schedule: Q01DX009 (ip), vehicle: saline with Tween-80) was 113 % of control, the T/C (dose: 25.0 mg/kg/injection, schedule: Q04DX003 (ip), vehicle: saline) was 109 % of control and the T/C [4] was 158 % of control and 168 % of control. For the same compound, the T/C (dose: 50.0 mg/kg/injection, schedule: Q04DX003 (ip), vehicle: saline) was 113 % of control.
In the case of `O=CNC(Cc1cccc(N(CCCl)CCCl)c1)C(=O)O` (configuration not stated), the T/C (dose: 25.0 mg/kg/injection, schedule: Q01DX009 (ip), vehicle: saline sonified) is reported as 95 % of control.
For `FC(F)(F)COP(OCC(F)(F)F)c1ccccc1`, the T/C [5] was 106 % of control, the T/C [6] was 111 % of control and the T/C [7] was 111 % of control.
In the case of `O=C(O)CC1Sc2ccccc2NC1=O` (configuration not stated), the T/C [8] is reported as 100 % of control, the T/C [9] is reported as 108 % of control and the T/C [10] is reported as 108 % of control. For the same compound, the T/C (dose: 400.0 mg/kg/injection, schedule: Q01DX009 (ip), vehicle: Klucel (hydroxypropylcellulose) (HPC)) was 100 % of control.
In the case of `COc1cccc(-n2c(SC)nccc2=O)c1`, the T/C (dose: 100.0 mg/kg/injection, schedule: Q04DX003 (ip), vehicle: Klucel (hydroxypropylcellulose) (HPC)) is reported as 100 % of control, the T/C (dose: 200.0 mg/kg/injection, schedule: Q04DX003 (ip), vehicle: Klucel (hydroxypropylcellulose) (HPC)) is reported as 101 % of control and the T/C (dose: 400.0 mg/kg/injection, schedule: Q04DX003 (ip), vehicle: Klucel (hydroxypropylcellulose) (HPC)) is reported as 100 % of control.
In the case of `CC(=O)OCCn1c([N+](=O)[O-])cnc1/C=[N+](/C)[O-]`, the T/C [11] is reported as 101 % of control, the T/C [12] is reported as 102 % of control and the T/C [13] is reported as 103 % of control.
With `C=C(CO)C(=O)OC1CC(=C)C2CC(O)C(C)C2C2OC(=O)C(=C)C12` (configuration not stated) the T/C (dose: 0.75 mg/kg/injection, schedule: Q01DX009 (ip), vehicle: Klucel (hydroxypropylcellulose) (HPC)) was 100 % of control and 114 % of control, the T/C (dose: 1.5 mg/kg/injection, schedule: Q01DX009 (ip), vehicle: Klucel (hydroxypropylcellulose) (HPC)) was 104 % of control and 91 % of control and the T/C (dose: 3.0 mg/kg/injection, schedule: Q01DX009 (ip), vehicle: Klucel (hydroxypropylcellulose) (HPC)) was 98 % of control and 97 % of control. The T/C (dose: 6.0 mg/kg/injection, schedule: Q01DX009 (ip), vehicle: Klucel (hydroxypropylcellulose) (HPC)) was 102 % of control and 107 % of control and 112 % of control, the T/C (dose: 12.0 mg/kg/injection, schedule: Q01DX009 (ip), vehicle: Klucel (hydroxypropylcellulose) (HPC)) was 103 % of control and the T/C (dose: 24.0 mg/kg/injection, schedule: Q01DX009 (ip), vehicle: Klucel (hydroxypropylcellulose) (HPC)) was 98 % of control.
`COCCOCOC(C)(C)CCCCl` was tested, and the T/C [14] was 106 % of control, the T/C [15] was 101 % of control and the T/C [16] was 100 % of control.
`COc1ccc(C(=O)ON(c2ccccc2)C(C)(C)C)cc1` was tested, and the T/C [17] was 97 % of control, the T/C [4] was 103 % of control and the T/C [18] was 97 % of control.
In the case of `O=c1cc(Br)[nH]c(=O)o1`, the T/C [17] is reported as 91 % of control, the T/C [4] is reported as 97 % of control and the T/C [18] is reported as 92 % of control.
For `Cc1ccc2c(c1)Sc1c(ccc3ccccc13)N2`, the T/C [5] was 103 % of control, the T/C [6] was 102 % of control and the T/C [7] was 97 % of control.
In the case of `CCOC(=O)NC(=S)C1=C(N2CCOCC2)CCC1`, the T/C [8] is reported as 106 % of control, the T/C [9] is reported as 122 % of control and the T/C [10] is reported as 97 % of control.
In the case of `Cn1c(=O)c2cc(C(N)=O)c(=O)oc2n(C)c1=O`, the T/C (dose: 62.5 mg/kg/injection, schedule: Q01DX001 (ip), vehicle: Klucel (hydroxypropylcellulose) (HPC)) is reported as 109 % of control, the T/C (dose: 125.0 mg/kg/injection, schedule: Q01DX001 (ip), vehicle: Klucel (hydroxypropylcellulose) (HPC)) is reported as 110 % of control and the T/C (dose: 250.0 mg/kg/injection, schedule: Q01DX001 (ip), vehicle: Klucel (hydroxypropylcellulose) (HPC)) is reported as 114 % of control.
With `Clc1ccc(N=NN2CN3CN(C2)CN(N=Nc2ccc(Cl)cc2)C3)cc1` the T/C (dose: 100.0 mg/kg/injection, schedule: Q04DX002 (ip), vehicle: Klucel (hydroxypropylcellulose) (HPC)) was 94 % of control, the T/C (dose: 200.0 mg/kg/injection, schedule: Q04DX002 (ip), vehicle: Klucel (hydroxypropylcellulose) (HPC)) was 99 % of control and the T/C (dose: 400.0 mg/kg/injection, schedule: Q04DX002 (ip), vehicle: Klucel (hydroxypropylcellulose) (HPC)) was 91 % of control.
With `CCOc1c(N=Nc2ccc(C)cc2)c(C)nn1C(N)=S` the T/C (dose: 15.0 mg/kg/injection, schedule: Q01DX005 (ip), vehicle: Klucel + Tween-80) was 103 % of control and the T/C (dose: 30.0 mg/kg/injection, schedule: Q01DX005 (ip), vehicle: Klucel + Tween-80) was 105 % of control.
For `CSCC(N)CO` (configuration not stated), the T/C [11] was 110 % of control, the T/C [12] was 105 % of control and the T/C [13] was 101 % of control.
`Nn1c(-c2ccc(Cl)c(Cl)c2)nc2ccccc2c1=O` was tested, and the T/C [4] was 89 % of control, the T/C [18] was 99 % of control and the T/C [19] was 98 % of control.
With `COc1ccc2c(c1)OC(C)(C)C(c1ccccc1)=C2c1ccc(OCCBr)cc1` the T/C (dose: 50.0 mg/kg/injection, schedule: Q01DX005 (ip), vehicle: Klucel (hydroxypropylcellulose) (HPC)) was 101 % of control, the T/C (dose: 100.0 mg/kg/injection, schedule: Q01DX005 (ip), vehicle: Klucel (hydroxypropylcellulose) (HPC)) was 98 % of control and the T/C (dose: 200.0 mg/kg/injection, schedule: Q01DX005 (ip), vehicle: Klucel (hydroxypropylcellulose) (HPC)) was 100 % of control.
`CC(/C(=N/O)c1ccccc1)N1C(=O)c2ccccc2C1=O` (configuration not stated) was tested, and the T/C (dose: 60.0 mg/kg/injection, schedule: Q01DX005 (ip), vehicle: Klucel (hydroxypropylcellulose) (HPC)) was 100 % of control, the T/C [20] was 99 % of control and the T/C [21] was 96 % of control.
`CC(C(=O)c1ccc(Cl)cc1)C1=NC2NN(c3ccccc3)C(=O)C2=C1C(C)C(=O)c1ccc(Cl)cc1` (configuration not stated) was tested, and the T/C [14] was 99 % of control, the T/C [15] was 101 % of control and the T/C [16] was 100 % of control.
With `[CH3][Pb]([CH3])([CH3])[Cl]` the T/C (dose: 0.75 mg/kg/injection, schedule: Q01DX009 (ip), vehicle: saline) was 90 % of control and 92 % of control, the T/C (dose: 1.5 mg/kg/injection, schedule: Q01DX009 (ip), vehicle: saline) was 90 % of control and 93 % of control and 97 % of control and the T/C (dose: 3.0 mg/kg/injection, schedule: Q01DX009 (ip), vehicle: saline) was 94 % of control (2×) and 97 % of control. For the same compound, the T/C (dose: 6.0 mg/kg/injection, schedule: Q01DX009 (ip), vehicle: saline) was 95 % of control.
In the case of `O=C1CSC(c2ccccc2O)N1c1nc(-c2ccc(Cl)cc2)cs1` (configuration not stated), the T/C (dose: 100.0 mg/kg/injection, schedule: Q01DX001 (ip), vehicle: saline with Tween-80) is reported as 100 % of control, the T/C (dose: 200.0 mg/kg/injection, schedule: Q01DX001 (ip), vehicle: saline with Tween-80) is reported as 98 % of control and the T/C (dose: 400.0 mg/kg/injection, schedule: Q01DX001 (ip), vehicle: saline with Tween-80) is reported as 87 % of control.
In the case of `O=C1N=c2ccc(Br)cc2=C1c1sc(=O)n(Cc2nc3ccccc3[nH]2)c1O`, the T/C [1] is reported as 95 % of control, the T/C [2] is reported as 93 % of control and the T/C [3] is reported as 90 % of control.
`CC(=O)Nc1ccc(Br)c(NC(C)=O)n1` was tested, and the T/C (dose: 100.0 mg/kg/injection, schedule: Q04DX003 (ip), vehicle: saline with Tween-80) was 104 % of control, the T/C (dose: 200.0 mg/kg/injection, schedule: Q04DX003 (ip), vehicle: saline with Tween-80) was 104 % of control and the T/C (dose: 400.0 mg/kg/injection, schedule: Q04DX003 (ip), vehicle: saline with Tween-80) was 109 % of control.
With `N#CSCc1ccc(Cl)cc1Cl` the T/C [4] was 109 % of control, the T/C [18] was 113 % of control and the T/C [19] was 113 % of control.
`Nc1[nH]c(=S)[nH]c(=O)c1NS(=O)(=O)c1ccccc1` was tested, and the T/C (dose: 30.0 mg/kg/injection, schedule: Q01DX005 (ip), vehicle: Klucel (hydroxypropylcellulose) (HPC)) was 104 % of control and 106 % of control, the T/C [20] was 98 % of control and 97 % of control and the T/C [21] was 98 % of control and 108 % of control.
With `CC(C)c1cc(C2C(=O)c3ccccc3C2=O)cc(C(C)C)c1O` the T/C (dose: 100.0 mg/kg/injection, schedule: Q04DX002 (ip), vehicle: saline) was 106 % of control, the T/C (dose: 200.0 mg/kg/injection, schedule: Q04DX002 (ip), vehicle: saline) was 114 % of control and the T/C (dose: 400.0 mg/kg/injection, schedule: Q04DX002 (ip), vehicle: saline) was 108 % of control.
